In ChEMBL document CHEMBL1156605, “Discovery of dihydroquinoxalinone acetamides containing bicyclic amines as potent Bradykinin B1 receptor antagonists” (Bioorg Med Chem Lett, 2008):
Blank lines part the entries; values can stand above or below the compound they belong to.

Legend:
[1] = biological target: T1, B1 bradykinin receptor (Homo sapiens, UniProt P46663); experiment: Antagonist activity at human bradykinin B1 receptor expressed in CHO-D-/aequorin cells; format: functional, cell-based
T1 sequence (P46663 whole entry): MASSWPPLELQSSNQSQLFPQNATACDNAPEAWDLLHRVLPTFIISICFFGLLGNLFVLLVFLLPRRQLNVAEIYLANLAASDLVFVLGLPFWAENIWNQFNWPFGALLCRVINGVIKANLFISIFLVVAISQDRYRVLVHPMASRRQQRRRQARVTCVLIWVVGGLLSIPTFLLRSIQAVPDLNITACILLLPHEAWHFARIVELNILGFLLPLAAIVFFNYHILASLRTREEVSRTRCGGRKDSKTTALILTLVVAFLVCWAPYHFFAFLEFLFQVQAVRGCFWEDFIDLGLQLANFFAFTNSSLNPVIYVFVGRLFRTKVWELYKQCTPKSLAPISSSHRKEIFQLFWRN

[2] = biological target: T1, B1 bradykinin receptor; experiment: Displacement of [3H]DAK from human bradykinin B1 receptor expressed in CHO-D-/aequorin cells by rapid filtration technique; format: cell-based
[3] = Metabolic stability in human liver microsomes; format: ADME, Microsome; details: read-out: Stability

Compound: COc1ccccc1NC(=O)CC1C(=O)Nc2ccccc2N1S(=O)(=O)c1c(C)cc(C)cc1C (stereo unspecified)
IC50 [1]: > 40000 nM | Ki [2]: 500 nM

Compound: CN(C)Cc1ccc2c(c1)OCC[C@H]2NC(=O)C[C@@H]1C(=O)Nc2ccccc2N1S(=O)(=O)c1ccc(Cl)c(Cl)c1
microsomal CLint [3]: 208 µL/min/mg

Compound: CC(C)NCc1ccc2c(c1)OCC[C@H]2NC(=O)C[C@@H]1C(=O)Nc2ccccc2N1S(=O)(=O)c1ccc(Cl)c(Cl)c1
IC50 [1]: 0.86 nM | Ki [2]: 0.7 nM | microsomal CLint [3]: 156 µL/min/mg

Compound: O=C(C[C@@H]1C(=O)Nc2ccccc2N1S(=O)(=O)c1ccc(Cl)c(Cl)c1)N[C@@H]1CCOc2cc(CO)ccc21
microsomal CLint [3]: 264 µL/min/mg

Compound: O=Cc1ccc2c(c1)OCC[C@H]2NC(=O)C[C@@H]1C(=O)Nc2ccccc2N1S(=O)(=O)c1ccc(Cl)c(Cl)c1
microsomal CLint [3]: 407 µL/min/mg

Compound: NCc1ccc2c(c1)OCC[C@H]2NC(=O)C[C@@H]1C(=O)Nc2ccccc2N1S(=O)(=O)c1ccc(Cl)c(Cl)c1
microsomal CLint [3]: 127 µL/min/mg

More lines, now with the values ahead:

microsomal CLint [3]: 389 µL/min/mg
Compound: O=C(C[C@@H]1C(=O)Nc2ccccc2N1S(=O)(=O)c1ccc(Cl)c(Cl)c1)N[C@@H]1CCOc2cc(CN3CCCCC3)ccc21

microsomal CLint [3]: 128 µL/min/mg
Compound: Cc1ccc(S(=O)(=O)N2c3ccccc3NC(=O)[C@H]2CC(=O)N[C@@H]2CCOc3cc(CN4CCCCC4)ccc32)cc1

microsomal CLint [3]: 76 µL/min/mg
Compound: O=C(C[C@@H]1C(=O)Nc2ccccc2N1S(=O)(=O)c1ccccc1)N[C@@H]1CCOc2cc(CN3CCCCC3)ccc21

IC50 [1]: 0.18 nM
Compound: O=C(C[C@@H]1C(=O)Nc2ccccc2N1S(=O)(=O)c1ccc(Cl)c(Cl)c1)NCCc1ccc(C2=NCCN2)cc1

microsomal CLint [3]: 107 µL/min/mg
Compound: CNCc1ccc2c(c1)OCC[C@H]2NC(=O)C[C@@H]1C(=O)Nc2ccccc2N1S(=O)(=O)c1ccc(Cl)c(Cl)c1

microsomal CLint [3]: 264 µL/min/mg
Compound: CC(C)CNCc1ccc2c(c1)OCC[C@H]2NC(=O)C[C@@H]1C(=O)Nc2ccccc2N1S(=O)(=O)c1ccc(Cl)c(Cl)c1

IC50 [1]: 1.7 nM | Ki [2]: 1.1 nM | microsomal CLint [3]: 174 µL/min/mg
Compound: CC(C)(C)NCc1ccc2c(c1)OCC[C@H]2NC(=O)C[C@@H]1C(=O)Nc2ccccc2N1S(=O)(=O)c1ccc(Cl)c(Cl)c1

IC50 [1]: 0.37 nM | Ki [2]: 1.8 nM | microsomal CLint [3]: 26 µL/min/mg
Compound: CC(C)(C)NCc1ccc2c(c1)OCC[C@H]2NC(=O)C[C@@H]1C(=O)Nc2ccccc2N1S(=O)(=O)c1ccccc1
